Assay results taken from patent publication US20260001879A1, “COMPOUNDS AS MYT1 INHIBITORS” (WIGEN BIOMMEDICINE TECHNOLOGY (SHANGHAI) CO., LTD., priority 2022, published 2026).
Values after ≈ are worked out from the molar mass of the structure shown.

Key:
[1] = In vitro stability experiment (HPLC purity after stirring in vehicle); format: physicochemical; settings: 0.5 h
Protocol: (§1) Preparation of a standard curve: 10.01 mg of sample was weighed out and placed in a volumetric flask, and the volume was brought to 10 mL with acetonitrile/water (v/v, 9/1) to prepare 1.001 mg/mL of standard solution; the standard solution was then serially diluted to 0.5005 mg/mL, 0.1001 mg/mL, 0.05005 mg/mL, 0.01001 mg/mL, and 0.001001 mg/mL to generate the standard curve, and a linear equation was fitted by taking the peak area of the sample as a vertical axis and the concentration as a horizontal axis.
(§2) Solubility and stability test: 15 mg of sample was added to 3 mL of vehicle (FaSSIF, FeSSIF, SGF, or water) to prepare a corresponding suspension at a target concentration of 5 mg/mL. The prepared suspension was stirred on a shaker (800 rpm) at 37° C. for 0.5 h, and the suspension was then filtered. The filtrate was diluted with a diluent to a corresponding multiple so that the peak height could not exceed the standard curve, and the solubility and purity were detected using HPLC.

[2] = in vitro; settings: dog, MDCK
Protocol: (§3) In vitro passive permeability or the ability to serve as a P-glycoprotein (P-gp) transport substrate was tested using MDCK cells (MDCK wild type) or MDCK cells stably transduced with MDRI (MDCK-MDRI), respectively. The permeability experiment was performed in duplicate in a transwell system at a single concentration (5 μM). The cells were incubated for […] Apical-to-basolateral (A to B, A-B) transport and basolateral-to-apical (B to A, B-A) transport of the corresponding compound were determined, and the permeation rate (apparent permeability) (Papp×10^−6 cm/sec) and efflux ratio (Papp (B−A)/Papp (A−B)) of the test compound were calculated.

[3] = tested on: P-glycoprotein (P-gp, MDR1); assay: in vitro; settings: dog
Protocol: as §3

[4] = In vitro solubility experiment; format: physicochemical; settings: organic solvent or mixture, thermodynamic from solid, 0.5 h
Protocol: as §1, §2

[5] = tested on: MIA PaCa-2 cells; assay: In vitro anti-proliferative activity in combination with gemcitabine against MIA PaCa-2 cells; format: cell-based; settings: Homo sapiens, MIA PaCa-2, 72 h, read-out: Anti-proliferative activity against MIA PaCa-2 cells (20 nM gemcitabine) IC50, with 20 nM gemcitabine, 72 h, intracellular ATP content
Protocol: MIA PaCa-2 cells were seeded on a 384-well plate at 3000 cells/well, and 20 nM gemcitabine was added. After overnight adherence culture, DMSO or the compounds serially diluted 1:5 from 1000 nM were added. The viability was assessed 72 h after dosing by measuring the intracellular ATP content. The inhibition percentage of viable cells by the compounds was calculated by comparing with the DMSO group, and the IC50 value was calculated.

[6] = In vivo pharmacokinetic experiment in mice; design: species or system CD-1 female mice; settings: mouse
Protocol: CD-1 female mice aged 7 to 10 weeks were intravenously administered and orally administered at a dose of 2 mg/kg and 10 mg/kg, respectively. The mice were fasted for at least 12 h before the administration and given food 4 h after the administration, and they were given ad libitum access to water during the experiment. On the day of the experiment, animals in the intravenous group were administered the corresponding compound by single injection via the tail vein at an administration volume of 10 mL/kg. Animals in the oral group were administered the corresponding compound by single intragastric injection at an administration volume of 10 mL/kg. The animals were weighed before administration, and the administration volume was calculated according to the body weight. The sample collection time was 0.083 h (injection group), 0.167 h, 0.5 h, 1 h, 2 h, 4 h, 8 h, and 24 h. About 200 μL of whole blood was collected through the submaxillary venous plexus at each time point and used to prepare plasma for concentration determination by high-performance liquid chromatography-tandem mass spectrometry (LC-MS/MS). All animals were euthanized with CO2 anesthesia after the PK samples were collected at the last time point. The plasma concentrations were processed using a non-compartmental model of Phoenix WinNonlin™ version 8.3 (Certara) pharmacokinetic software, and the pharmacokinetic parameters were calculated using a linear-log trapezoidal method.

[7] = female, CD-1, plasma, iv, injection 2 mg/kg

Q: Which results are given for `Cc1cc2c(C(N)=O)c(N)n(-c3c(C)ccc(O)c3C)c2nc1C` [RP-6306, reference compound]?
A: HPLC purity (%, 220 nm) 0.5 h ([1]; stability in FaSSIF, initial pH 6.52, 37° C.): 58.88%; HPLC purity (%, 220 nm) 0.5 h ([1]; stability in FeSSIF, initial pH 4.98, 37° C.): 74.51%; HPLC purity (%, 220 nm) 0.5 h ([1]; stability in SGF, initial pH 1.2, 37° C.): 98.18%; HPLC purity (%, 220 nm) 0.5 h ([1]; stability in Water, initial pH 7.7, 37° C.): 40.92%; efflux ratio at 90 min, 5 μM [2]: 2.17; Papp A→B at 90 min, 5 µM ([2]; Papp A-B Mean): 17.1 ×10⁻⁶ cm/s; Papp A→B at 90 min, 5 µM ([2]; Papp A-B Sample - 01): 15.1 ×10⁻⁶ cm/s; Papp A→B at 90 min, 5 µM ([2]; Papp A-B Sample - 02): 19.1 ×10⁻⁶ cm/s; Papp B→A at 90 min, 5 µM ([2]; Papp B-A Mean): 37.2 ×10⁻⁶ cm/s; Papp B→A at 90 min, 5 µM ([2]; Papp B-A Sample - 01): 38.5 ×10⁻⁶ cm/s; Papp B→A at 90 min, 5 µM ([2]; Papp B-A Sample - 02): 35.9 ×10⁻⁶ cm/s; efflux ratio at 90 min, 5 μM ([3]; MDCK-MDR1): 2.64; Papp A→B at 90 min, 5 µM ([3]; MDCK-MDR1, Papp A-B Mean): 13.9 ×10⁻⁶ cm/s; Papp A→B at 90 min, 5 µM ([3]; MDCK-MDR1, Papp A-B Sample - 01): 13.9 ×10⁻⁶ cm/s; Papp A→B at 90 min, 5 µM ([3]; MDCK-MDR1, Papp A-B Sample - 02): 14 ×10⁻⁶ cm/s; Papp B→A at 90 min, 5 µM ([3]; MDCK-MDR1, Papp B-A Mean): 36.9 ×10⁻⁶ cm/s; Papp B→A at 90 min, 5 µM ([3]; MDCK-MDR1, Papp B-A Sample - 01): 37.6 ×10⁻⁶ cm/s; Papp B→A at 90 min, 5 µM ([3]; MDCK-MDR1, Papp B-A Sample - 02): 36.2 ×10⁻⁶ cm/s; solubility at 0.5 h ([4]; Methanol): 20.2 mg/mL (≈ 62.2 mM); solubility at 0.5 h ([4]; Tetrahydrofuran): 4.52 mg/mL (≈ 13.9 mM); IC50 [5]: 29 nM; AUC(0-t) [6, 7]: 376 ng·h/mL; half-life [6, 7]: 33.6 min; Vd ([6]; female, CD-1, plasma, iv, injection 2 mg/kg, read-out: Vdss): 2.46 L/kg; AUC(0-t) ([6]; female, CD-1, plasma, oral administration 10 mg/kg): 1030 ng·h/mL; Cmax ([6]; female, CD-1, plasma, oral administration 10 mg/kg, read-out: Cmax): 881 ng/mL; Cl ([6]; injection 2 mg/kg): 46.5 mL/min/kg; F % ([6]; oral administration 10 mg/kg): 54.7%
